Key:
[1] = cited from earlier work
[2] = Solubility of the test article in HBSS assay buffer; type: physicochemical; conditions: all tested concentrations 0.01-10 μM; highest tested concentration 10 μM
Description: Before the experiment, the medium was removed and the cells were washed twice with 100 μL of HBSS without Cl^−. Uptake experiments were carried out at 37±1° C. in 50 μL of HBSS without Cl^−, pH 7.4 containing the probe substrate (20 μM uric acid) and the test article (TA) or solvent.
Results: Compound 1 was soluble in HBSS buffer at all tested concentrations; the highest tested concentration being 10 μM.

CCc1oc2ccccc2c1C(=O)c1cc(Br)c(O)c(Br)c1 [Benzbromarone]
serum uric acid (sUA) level reached ([1]; chronic therapy, patients): < 6 mg/dL | hepatotoxicity ([1]; in certain patients): associated with hepatotoxicity

[2H]c1c(O)c([2H])c2oc(C(C)O)c(C(=O)c3cc(Br)c(O)c(Br)c3)c2c1[2H] (stereo not drawn) [Compound 1, (3,5-dibromo-4-hydroxyphenyl)(6-hydroxy-2-(1-hydroxyethyl)benzofuran-3-yl-4,5,7-d3)methanone]
solubility in HBSS buffer [2]: soluble
